What was measured:
[1] = test system: S. haematobium adult schistosomes; test: Schistosomiasis screening, adult worm killing (S. haematobium); type: cell-based, Schistosoma haematobium; conditions: adult worms, final concentration 143 μM, 45 minutes incubation, washed, cultured 10-14 days, read day 14
Text: (§1) Schistosomiasis screening methods Strains of S. mansoni, S. haematobium, and S. japonicum were maintained by passage through species-specific snail intermediate hosts (Biomphlaria glabrata, Bulinus truncatus, and Oncomelania hupensis, respectively) and Golden Syrian Hamsters as a definitive host. Definitive host animals were sacrificed in accordance with IACUC protocol (UTHSCSA IACUC Protocol #08039) by intraperitoneal injection using Fatal-Plus (Butler Animal Health, Ohio), a sodium pentobarbital solution, with 10% heparin added. The adult parasites were obtained by perfusion as previously described using 0.9% saline containing EDTA.^1 Derivatives were solubilized in DMSO and diluted to working concentration of 50 mM and added directly to each well of a 24-well plate within 2-24 hours after harvesting adult schistosomes from the hamsters at a final concentration of 143 μM. Each analog was tested in triplicate. DMSO, oxamniquine (OXA, the parent drug known to kill only S. mansoni), or Hycanthone (HC, a carcinogen known to kill S. mansoni and S. haematobium) were used as controls as needed. Drugs were incubated with the worms at 37° C., 5% CO2 for 45 minutes, mimicking physiological conditions. The worms were washed with plain media 3 times to remove any residual derivatives. Worms were then incubated in culture media as previously described for a period of 10-14 days. On day 14, the assay gives % worms alive as an efficacy data point. For comparison, Oxaminiquine scores 50% alive in this assay.

[2] = test system: S. japonicum adult schistosomes; test: Schistosomiasis screening, adult worm killing (S. japonicum); type: cell-based, Schistosoma japonicum; conditions: adult worms, final concentration 143 μM, 45 minutes incubation, washed, cultured 10-14 days, read day 14
Text: as §1

[3] = test system: S. mansoni adult schistosomes; test: Schistosomiasis screening, adult worm killing (S. mansoni); type: cell-based, Schistosoma mansoni; conditions: for Kill % S. m: adult worms, final concentration 143 μM, 45 minutes incubation, washed, cultured 10-14 days, read day 14
Text: as §1

O=[N+]([O-])c1cc(NCC2(Cc3cccc(C(F)(F)F)c3)CCN(Cc3c[nH]c4ccccc34)C2)ccc1CO (stereo not shown) [CIDD-0149830, (4-(((1-((1H-indol-3-yl)methyl)-3-(3-(trifluoromethyl)benzyl)pyrrolidin-3-yl)methyl)amino)-2-nitrophenyl)methanol]
Kill % S. h [1]: 100% | Kill % S. j [2]: 100% | Kill % S. m [3]: 100%

CN(C)CCNC(=O)c1cccc2c(N)c3cc(Cl)ccc3nc12 [CIDD-0150235]
Kill % S. m [3]: 60%

Nc1c2ccccc2nc2c(C(=O)NCCNCCO)cccc12 [CIDD-0150236]
Kill % S. m [3]: 43%

Cc1c2ccccc2nc2c(C(=O)NCCN(C)C)cccc12 [CIDD-0150237]
Kill % S. m [3]: 33%

CN(C)CCCNC(=O)c1cccc2c(N)c3ccccc3nc12 [CIDD-0150238]
Kill % S. m [3]: 6%

CCN(CC)CCNC(=O)c1cccc2c(N)c3ccccc3nc12 [CIDD-0150239]
Kill % S. m [3]: 36%

Oc1cccc2c1ccc1c(F)c3ccccc3cc12 [CIDD-0150240]
Kill % S. m [3]: 20%

Cc1c[nH]c2c1C13CC1CN(S(C)(=O)=O)C3=CC2=O (stereo not shown) [CIDD-0150241]
Kill % S. m [3]: 33%

O[C@@H]1c2ccccc2-c2cc3ccccc3c(F)c2[C@H]1O [CIDD-0150242]
Kill % S. m [3]: 56%

O=C(O)CCCn1c2ccccc2c(=O)c2ccccc21 [CIDD-0150302]
Kill % S. h [1]: 20% | Kill % S. j [2]: 40% | Kill % S. m [3]: 80%

O=S([O-])([O-])=S.O=S([O-])([O-])=S.[Ag+].[Na+].[Na+].[Na+] [CIDD-0150303]
Kill % S. h [1]: 40% | Kill % S. j [2]: 100% | Kill % S. m [3]: 100%

C=CCN(N=O)C(C)OC(C)=O (stereo not shown) [CIDD-0150326]
Kill % S. m [3]: 3.3%

CC(=O)OC(C)N(N=O)C1CC1 (stereo not shown) [CIDD-0150327]
Kill % S. m [3]: 3.3%

O=[N+]([O-])c1ccc2c3c1ccc1cccc(c13)[C@@H](O)[C@H]2O [CIDD-0150328]
Kill % S. m [3]: 16%

O=[N+]([O-])c1ccc2c(O)cc3cccc4ccc1c2c43 [CIDD-0150329]
Kill % S. m [3]: 40%

O=[N+]([O-])c1ccc2cc(O)c3cccc4ccc1c2c43 [CIDD-0150330]
Kill % S. m [3]: 10%

Cc1nc(SC[C@H](N)C(=O)O)c(N)n1C [CIDD-0150331]
Kill % S. m [3]: 10%

CC(=O)Nc1cnc(COC(N)=O)n1C [CIDD-0150332]
Kill % S. m [3]: 17%

CCCS(=O)(=O)OCC [CIDD-0150333]
Kill % S. m [3]: 20%

CCCCCS(=O)(=O)OCC [CIDD-0150334]
Kill % S. m [3]: 47%

Cn1c([N+](=O)[O-])nc2c3ccccc3ccc21 [CIDD-0150605]
Kill % S. m [3]: 13%

Cn1c([N+](=O)[O-])nc2ccc3ccccc3c21 [CIDD-0150606]
Kill % S. h [1]: 85.7% | Kill % S. m [3]: 100%

OCC(O)COc1ccccc1C1CCCC1 (stereo not shown) [CIDD-0150607]
Kill % S. m [3]: 50%

O=Nc1ccc2ccc3cc4ccccc4c4ccc1c2c34 [CIDD-0150608]
Kill % S. h [1]: 71.4% | Kill % S. m [3]: 93.3%

c1cc2ccc3c4ccc5cccc(c(c1)c23)c54 [CIDD-0150609]
Kill % S. m [3]: 16.6%

C[C@@H](O)[C@H]1C(=O)N2C(C(=O)O)=C(S[C@@H]3CN[C@H](C(=O)Nc4cccc(C(=O)O)c4)C3)[C@H](C)[C@H]12 [CIDD-0150610]
Kill % S. h [1]: 100% | Kill % S. j [2]: 100% | Kill % S. m [3]: 100%

CC(C)NCC1CCc2cc(CO)c([N+](=O)[O-])cc2N1 (stereo not shown) [Oxaminiquine, oxamniquine, reference compound]
% worms alive ([3]; day 14, control drug for comparison, species not given): 50%

Reference: patent publication US20220227709A1, “COMPOSITIONS AND METHODS FOR TREATING SCHISTOSOMA INFECTIONS” (THE BOARD OF REGENTS OF THE UNIVERSITY OF TEXAS SYSTEM, priority 2019, published 2022)
